Test results published in PMC8760230, “Translational Development of a Zr-89-Labeled Inhibitor of Prostate-specific Membrane Antigen for PET Imaging in Prostate Cancer” (Molecular Imaging and Biology, 2021).
Values joined by “and” are separate entries in the source; they are usually repeats but may differ in a detail not shown here. Equal entries are not always repeated. “Also recorded” adds a separate entry of the source. Where two headings read alike, the source gives them in different places.

Columns and labels:
LNCaP cells [1] = test: Cellular uptake (specific cell binding) in LNCaP cells; format: cell-based; conditions: n=3
Method: (§1) The cell binding determined in these experiments is the sum of specific and nonspecific cell binding. To determine the values for nonspecific cell binding and internalization, all experiments were additionally performed in the presence of 2-PMPA.
(§2) The plates were incubated for 1 h; after which, 0.75 pmol of the radiotracer to be examined was added to 1 ml of fresh medium. The cells were incubated for 30 min, 1, 2, 3, and 5 h. At each time point, the supernatant was removed and the cells washed with 1 ml of PBS. To dissociate the receptor-bound radioligand, the cells were washed twice with 1 ml of a 0.1 M glycine buffer solution at pH 2.8 for 5 min. The 0.1 M glycine–HCl buffer dissociated all the surface-bound complexes. The cells were then washed with 1 ml of PBS, and the internalized fraction was determined by solubilizing the cells with 1 ml of 1 M NaOH and incubating them for 10 min at room temperature. The radioactivity collected from the culture medium, 0.1 M glycine (surface-bound), and 1 M NaOH (internalized fraction) was measured in a gamma counter and decay-corrected. Cell binding was calculated from the surface-bound (0.1 M glycine) and the internalized fraction (1 M NaOH). The internalized fraction was expressed as a percentage of cell binding (internalization to cell-bound radioactivity ratio). All cell uptake experiments were run in triplicate.

LNCaP cells [2] = test: Internalization in LNCaP cells; format: cell-based; conditions: n=3
Method: as §1, §2

LNCaP tumor xenografts = conditions: for Tumor/blood ratio / Tumor/kidneys ratio / Tumor/liver ratio / Tumor/muscle ratio: LNCaP xenograft mice; for Biodistribution Blood / Biodistribution Bone / Biodistribution Heart / Biodistribution Intestine / Biodistribution Kidneys / Biodistribution LNCAP-tumor / Biodistribution Liver / Biodistribution Lung / Biodistribution Muscle / Biodistribution Prostate / Biodistribution Spleen / Biodistribution Thyroid: i.v. 30 pmol, n=5
prostate cancer relapse = test: First-in-human PET/CT scan in a patient with biochemical recurrence of prostate cancer; conditions: for SUVmax left prostate lobe / SUVmax right prostate lobe: 93 MBq
Method: The patient had given their written informed consent for PET imaging and the scientific evaluation of their data. All procedures were performed in accordance with the Institutional Review Board and the regulations of the regional authorities in Cologne. The kidney dose was estimated on the basis of two PET scans. The following assumptions were made for the estimation: Between time 0 (injection) and the first measuring point, the time-activity-curve follows a constant progression. All measuring points were integrated numerically using trapezoidal approximation. From the last measuring point to infinity, a mono-exponential function was fitted and integrated. As the effective half-life could not be accurately determined from two measurement points, the physical half-life of Zr-89 was used instead.

LNCaP tumor xenograft = test: Small-animal PET in mice bearing an LNCaP tumor xenograft, with and without blocking by 2-PMPA
PSMA = target: T1, PSMA (Homo sapiens, UniProt Q04609); test: Equilibrium dissociation constant Kd / Bmax, saturation binding on PSMA-positive LNCaP cells; conditions: Scatchard plots
T1 construct: host or cells: LNCaP cells
Method: The equilibrium dissociation constant describing the interaction of the radiolabeled ligands with the PSMA binding sites was determined in PSMA-positive LNCaP cell lines (Cell Line Service, Eppelheim, Germany). LNCaP cells were seeded at a density of 10^6 cells/well on a 6-well plate (Corning, ME, USA) and incubated under 5% CO2 at 37 °C for 48 h with medium (minimum essential medium Eagle supplemented with 2 mM L-glutamine, 0.1 mM non-essential amino acids (NEAA), 1.0 mM sodium pyruvate, 10% fetal bovine serum, 100 U/ml penicillin, and 100 µg/ml streptomycin) (Lonza, Verviers, Belgium) in a humidified incubator (Thermo Heracell 150 CO2-Incubator, MA, USA). To determine the nonspecific binding, the medium was removed from selected wells, and 1 ml of a solution of 0.1 mM of 2-(phosphonomethyl)-pentanedioic acid (2-PMPA) in fresh medium was added. […] The plates were then incubated under 5% CO2, at 37 °C for 1 h. After that, the medium was removed and the cells incubated under the same incubation conditions for 3 h with different concentrations (0.25 nM, 2.5 nM, 5 nM, 10 nM, 25 nM, 50 nM, and 75 nM) of the radiotracer under investigation in 1 ml fresh medium.
After 3 h, the cells were washed three times with 1 ml PBS, and the cells were finally lysed by adding 1 ml of 1 M NaOH and incubating them for 10 min at room temperature. All samples were measured with a gamma counter (Nuklear Medizintechnik Dresden Isomed 100, Dresden, Germany) and were decay-corrected. The equilibrium dissociation constant (Kd) and the maximum density of receptors (Bmax) were calculated by non-linear regression using GraphPad Prism 8.0.2 (GraphPad Software, San Diego, USA).

T1 sequence (Q04609 whole entry): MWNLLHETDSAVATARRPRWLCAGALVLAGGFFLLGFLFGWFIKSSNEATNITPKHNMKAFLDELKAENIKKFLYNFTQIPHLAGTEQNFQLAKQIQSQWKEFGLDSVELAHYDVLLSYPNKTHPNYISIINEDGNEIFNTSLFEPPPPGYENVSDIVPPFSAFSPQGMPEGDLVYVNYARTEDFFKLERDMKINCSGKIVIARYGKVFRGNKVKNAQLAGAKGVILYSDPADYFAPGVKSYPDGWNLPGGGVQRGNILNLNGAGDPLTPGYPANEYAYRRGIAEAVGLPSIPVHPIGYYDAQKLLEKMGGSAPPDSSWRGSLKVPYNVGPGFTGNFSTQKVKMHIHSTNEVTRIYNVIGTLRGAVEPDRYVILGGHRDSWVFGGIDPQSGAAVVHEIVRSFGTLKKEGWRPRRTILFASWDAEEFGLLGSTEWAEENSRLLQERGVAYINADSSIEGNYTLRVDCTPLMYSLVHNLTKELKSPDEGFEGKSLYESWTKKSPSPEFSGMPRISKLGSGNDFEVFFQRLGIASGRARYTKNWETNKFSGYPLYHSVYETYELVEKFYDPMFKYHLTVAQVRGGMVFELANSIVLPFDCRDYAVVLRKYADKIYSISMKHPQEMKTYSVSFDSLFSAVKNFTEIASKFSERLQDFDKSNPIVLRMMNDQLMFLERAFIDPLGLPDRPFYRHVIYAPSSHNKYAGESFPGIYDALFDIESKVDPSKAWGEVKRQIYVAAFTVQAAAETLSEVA

SMILES: CC(=O)N1CCCCCNC(=O)CCC(=O)N2CCCCCNC(=O)CCC(=O)N(CCCCCNC(=O)CCC(=O)NCC3CCC(C(=O)NC(Cc4ccc5ccccc5c4)C(=O)NCCCCC(NC(=O)NC(CCC(=O)O)C(=O)O)C(=O)O)CC3)[O][89Zr+]([O]1)[O]2 (centres unmarked) [[^89Zr]Zr-PSMA-DFO, [^89Zr]Zr-N-sucDf-AMCHA-2Nal-EuK]
- Specific binding in LNCaP cells as percentage of total activity (LNCaP cells [1]; 0.5 h): 29.1±2.1%
- Specific binding in LNCaP cells as percentage of total activity (LNCaP cells [1]; 1 h): 38.5±2.3%
- Specific binding in LNCaP cells as percentage of total activity (LNCaP cells [1]; 2 h): 46.5±1.3%
- Specific binding in LNCaP cells as percentage of total activity (LNCaP cells [1]; 3 h): 48.8±1.0%
- Specific binding in LNCaP cells as percentage of total activity (LNCaP cells [1]; 5 h): 49.4±1.3%
- Period over which the radioligand was found stable (37 °C, PBS and human serum, TLC, HPLC in PBS, listed as Zr-89-radioligand): 7 days
- Radiochemical purity remaining on storage (storage in aqueous solution for 7 days): > 99%
- Specific internalized activity as percentage of specific cell-bound activity (LNCaP cells [2]; 0.5 h): 32.7±4.1%
- Specific internalized activity as percentage of specific cell-bound activity (LNCaP cells [2]; 1 h): 39.8±0.4%
- Specific internalized activity as percentage of specific cell-bound activity (LNCaP cells [2]; 2 h): 48.0±3.4%
- Specific internalized activity as percentage of specific cell-bound activity (LNCaP cells [2]; 3 h): 50.0±0.6%
- Specific internalized activity as percentage of specific cell-bound activity (LNCaP cells [2]; 5 h): 61.7±3.4%
- Tumor/blood ratio (LNCaP tumor xenografts; 2 h p.i.): 183 ± 42
- Tumor/kidneys ratio (LNCaP tumor xenografts; 2 h p.i.): 0.31 ± 0.06
- Tumor/liver ratio (LNCaP tumor xenografts; 2 h p.i.): 27.5 ± 3.2
- Tumor/muscle ratio (LNCaP tumor xenografts; 2 h p.i.): 534 ± 62
- Biodistribution Blood (LNCaP tumor xenografts; 2 h p.i.): 0.14 ± 0.02 %ID/g
- Biodistribution Bone (LNCaP tumor xenografts; 2 h p.i.): 0.15 ± 0.04 %ID/g
- Biodistribution Heart (LNCaP tumor xenografts; 2 h p.i.): 0.11 ± 0.05 %ID/g
- Biodistribution Intestine (LNCaP tumor xenografts; 2 h p.i.): 0.65 ± 0.15 %ID/g
- Biodistribution Kidneys (LNCaP tumor xenografts; 2 h p.i.): 86.7 ± 18.7 %ID/g
- Biodistribution LNCAP-tumor (LNCaP tumor xenografts; 2 h p.i.): 26.3 ± 5.3 %ID/g
- Biodistribution Liver (LNCaP tumor xenografts; 2 h p.i.): 0.95 ± 0.15 %ID/g
- Biodistribution Lung (LNCaP tumor xenografts; 2 h p.i.): 0.5 ± 0.04 %ID/g
- Biodistribution Muscle (LNCaP tumor xenografts; 2 h p.i.): 0.05 ± 0.02 %ID/g
- Biodistribution Prostate (LNCaP tumor xenografts; 2 h p.i.): 0.15 ± 0.04 %ID/g
- Biodistribution Spleen (LNCaP tumor xenografts; 2 h p.i.): 0.49 ± 0.07 %ID/g
- Biodistribution Thyroid (LNCaP tumor xenografts; 2 h p.i.): 0.18 ± 0.03 %ID/g
- Tumor/blood ratio (LNCaP tumor xenografts; 4 h p.i.): 180 ± 61
- Tumor/kidneys ratio (LNCaP tumor xenografts; 4 h p.i.): 0.55 ± 0.01
- Tumor/liver ratio (LNCaP tumor xenografts; 4 h p.i.): 29.6 ± 5.1
- Tumor/muscle ratio (LNCaP tumor xenografts; 4 h p.i.): 297 ± 62
- Biodistribution Blood (LNCaP tumor xenografts; 4 h p.i.): 0.13 ± 0.04 %ID/g
- Biodistribution Bone (LNCaP tumor xenografts; 4 h p.i.): 0.13 ± 0.03 %ID/g
- Biodistribution Heart (LNCaP tumor xenografts; 4 h p.i.): 0.12 ± 0.03 %ID/g
- Biodistribution Intestine (LNCaP tumor xenografts; 4 h p.i.): 0.54 ± 0.10 %ID/g
- Biodistribution Kidneys (LNCaP tumor xenografts; 4 h p.i.): 41.3 ± 2.37 %ID/g
- Biodistribution LNCAP-tumor (LNCaP tumor xenografts; 4 h p.i.): 22.8 ± 1.5 %ID/g
- Biodistribution Liver (LNCaP tumor xenografts; 4 h p.i.): 0.79 ± 0.17 %ID/g
- Biodistribution Lung (LNCaP tumor xenografts; 4 h p.i.): 0.12 ± 0.03 %ID/g
- Biodistribution Muscle (LNCaP tumor xenografts; 4 h p.i.): 0.08 ± 0.02 %ID/g
- Biodistribution Prostate (LNCaP tumor xenografts; 4 h p.i.): 1.12 ± 0.16 %ID/g
- Biodistribution Spleen (LNCaP tumor xenografts; 4 h p.i.): 0.61 ± 0.09 %ID/g
- Biodistribution Thyroid (LNCaP tumor xenografts; 4 h p.i.): 0.13 ± 0.02 %ID/g
- Tumor/blood ratio (LNCaP tumor xenografts; 24 h p.i.): 309 ± 89
- Tumor/kidneys ratio (LNCaP tumor xenografts; 24 h p.i.): 1.0 ± 0.3 and 1.02 ± 0.28
- Tumor/liver ratio (LNCaP tumor xenografts; 24 h p.i.): 40.0 ± 1.1
- Tumor/muscle ratio (LNCaP tumor xenografts; 24 h p.i.): 450 ± 38
- Biodistribution Blood (LNCaP tumor xenografts; 24 h p.i.): 0.05 ± 0.01 %ID/g
- Biodistribution Bone (LNCaP tumor xenografts; 24 h p.i.): 0.18 ± 0.02 %ID/g
- Biodistribution Heart (LNCaP tumor xenografts; 24 h p.i.): 0.09 ± 0.02 %ID/g
- Biodistribution Intestine (LNCaP tumor xenografts; 24 h p.i.): 0.25 ± 0.08 %ID/g
- Biodistribution Kidneys (LNCaP tumor xenografts; 24 h p.i.): 15.4 ± 4.1 %ID/g
- Biodistribution LNCAP-tumor (LNCaP tumor xenografts; 24 h p.i.): 14.9 ± 1.2 %ID/g
- Biodistribution Liver (LNCaP tumor xenografts; 24 h p.i.): 0.37 ± 0.03 %ID/g
- Biodistribution Lung (LNCaP tumor xenografts; 24 h p.i.): 0.04 ± 0.01 %ID/g
- Biodistribution Muscle (LNCaP tumor xenografts; 24 h p.i.): 0.03 ± 0.01 %ID/g
- Biodistribution Prostate (LNCaP tumor xenografts; 24 h p.i.): 0.50 ± 0.01 %ID/g
- Biodistribution Spleen (LNCaP tumor xenografts; 24 h p.i.): 0.36 ± 0.08 %ID/g
- Biodistribution Thyroid (LNCaP tumor xenografts; 24 h p.i.): 0.05 ± 0.01 %ID/g
- In vivo stability (no time-dependent increase in Zr-89 accumulation in bone) (LNCaP tumor xenografts; mice, 24 h or 48 h p.i., biokinetics and small-animal PET): convincing in vivo stability
- Overall effective dose (ICRP 60) (prostate cancer relapse): 0.11 mSv/MBq
- SUVmax left prostate lobe (prostate cancer relapse; 48 h p.i.): 9.47
- SUVmax right prostate lobe (prostate cancer relapse; 48 h p.i.): 13.25
- SUVmax left prostate lobe (prostate cancer relapse; 72 h p.i.): 7.14
- SUVmax right prostate lobe (prostate cancer relapse; 72 h p.i.): 13.05
- Kidney dose (prostate cancer relapse; estimated from two PET scans): 2.8 mGy/MBq
- Visibility of LNCaP tumor xenograft in PET (LNCaP tumor xenograft; 48 h p.i., 10 MBq): still clearly visible; also recorded: remained clearly visible
- Radioactivity in the bladder (LNCaP tumor xenograft; mice, 48 h after injection): no detectable radioactivity
- Share of renal radioactivity due to specific binding (LNCaP tumor xenograft; mouse, blocking experiment with 2-PMPA): approximately two-thirds
- Bmax (maximum achievable concentration on 10^6 tumor cells) (PSMA): 1428 ± 42 fmol/10^6 cells
